Laboratory results: US20160106722A1, “HUMAN THERAPEUTIC AGENTS” (Life Plus, LLC, priority 2014, published 2016)

Experiments:
Assay in all cases: Cancer spheroid cell death test (PrestoBlue)
Type in all cases: cell-based
[1] = system: human lung cancer cells (H358); details: compound alone
Procedure: (§1) Custom-made micromolds with 100 μm diameter wells were loaded with the cells (U.S. Pat. No. 8,735,154, incorporated by reference herein). The media were changed every day by partial replacement. Cell aggregates were allowed to form in the micromolds for 72 hours and then were transferred to a 100 mm non-treated tissue culture dishes for 3 additional days. The spheroids were passed through 70 μm and 100 μm cell strainers (#3431751 and #43152, Corning, Tewksbury, Mass.) and maintained in HEPES Balanced Salt Solution comprised of: 20 mM HEPES, 114 mM NaCl, 4.7 mM KCl, 1.2 mM KH2PO4, 1.16 mM MgSO4, 2.5 mM CaCl2, 25.5 mM NaHCO3 and 0.2% bovine serum albumin (fatty acid free), pH 7.2.
The lymphomas treatment methods used were identical to those described in Example 2 relative to the pediatric leukemia cells, whereas the lung cancer treatment method was the same as described in Example 1.

[2] = system: human ovarian cancer cells (A1847); details: for anticancer effects (cell number versus increasing concentrations): compound alone
Procedure: as §1
(§2) The cells were treated and tested as set forth in Example 1.

[3] = system: human prostate cancer cells (22rv1); details: compound alone
Procedure: as §1, §2

Row | SMILES | anticancer effects (cell number versus increasing concentrations) [1] | anticancer effects (cell number versus increasing concentrations) [2] | anticancer effects (cell number versus increasing concentrations) [3] | cell death, doxorubicin alone ([2]; low doses of doxorubicin alone (up to 0.158 μM))
1 | COc1ccc2c3c([nH]c2c1)C(C)=NCC3 [harmaline] | demonstrated anticancer effects | demonstrated anticancer effects | demonstrated anticancer effects | 
2 | COc1cc(C=O)ccc1O [vanillin] | demonstrated anticancer effects | demonstrated anticancer effects | demonstrated anticancer effects | 
3 | COc1ccc(C(=O)O)cc1O [isovanillic acid] | demonstrated anticancer effects | demonstrated anticancer effects | demonstrated anticancer effects | 
4 | COc1cccc(C=O)c1O [O-vanillin] | demonstrated anticancer effects | demonstrated anticancer effects | demonstrated anticancer effects | 
5 | COc1cccc2c1C(=O)c1c(O)c3c(c(O)c1C2=O)C[C@@](O)(C(=O)CO)C[C@@H]3O[C@H]1C[C@H](N)[C@H](O)[C@H](C)O1 [doxorubicin, reference compound] |  |  |  | ineffective
6 | COc1ccc2c3c([nH]c2c1)[C@@H](C)NCC3 [tetrahydro-harmine] | demonstrated anticancer effects | demonstrated anticancer effects | demonstrated anticancer effects | 
7 | CC1=NCCc2c1[nH]c1cc(O)ccc21.Cl [harmalol hydrochloride] | demonstrated anticancer effects | demonstrated anticancer effects | demonstrated anticancer effects | 
8 | COc1ccc(CO)cc1O [isovanillyl alcohol] | demonstrated anticancer effects | demonstrated anticancer effects | demonstrated anticancer effects | 
9 | Cc1nccc2c1[nH]c1cc(O)ccc12.Cl [harmole hydrochloride] | demonstrated anticancer effects | demonstrated anticancer effects | demonstrated anticancer effects | 
